Assay results: patent US20070027201A1 (Wyeth, priority 2005, published 2007)

Each compound was assayed against T1, progesterone receptor (Homo sapiens, UniProt P06401) (assay: T47D alkaline phosphatase assay for progesterone receptor modulator (antagonist) activity). Details: T47D cells.
T1 sequence (P06401 1-933): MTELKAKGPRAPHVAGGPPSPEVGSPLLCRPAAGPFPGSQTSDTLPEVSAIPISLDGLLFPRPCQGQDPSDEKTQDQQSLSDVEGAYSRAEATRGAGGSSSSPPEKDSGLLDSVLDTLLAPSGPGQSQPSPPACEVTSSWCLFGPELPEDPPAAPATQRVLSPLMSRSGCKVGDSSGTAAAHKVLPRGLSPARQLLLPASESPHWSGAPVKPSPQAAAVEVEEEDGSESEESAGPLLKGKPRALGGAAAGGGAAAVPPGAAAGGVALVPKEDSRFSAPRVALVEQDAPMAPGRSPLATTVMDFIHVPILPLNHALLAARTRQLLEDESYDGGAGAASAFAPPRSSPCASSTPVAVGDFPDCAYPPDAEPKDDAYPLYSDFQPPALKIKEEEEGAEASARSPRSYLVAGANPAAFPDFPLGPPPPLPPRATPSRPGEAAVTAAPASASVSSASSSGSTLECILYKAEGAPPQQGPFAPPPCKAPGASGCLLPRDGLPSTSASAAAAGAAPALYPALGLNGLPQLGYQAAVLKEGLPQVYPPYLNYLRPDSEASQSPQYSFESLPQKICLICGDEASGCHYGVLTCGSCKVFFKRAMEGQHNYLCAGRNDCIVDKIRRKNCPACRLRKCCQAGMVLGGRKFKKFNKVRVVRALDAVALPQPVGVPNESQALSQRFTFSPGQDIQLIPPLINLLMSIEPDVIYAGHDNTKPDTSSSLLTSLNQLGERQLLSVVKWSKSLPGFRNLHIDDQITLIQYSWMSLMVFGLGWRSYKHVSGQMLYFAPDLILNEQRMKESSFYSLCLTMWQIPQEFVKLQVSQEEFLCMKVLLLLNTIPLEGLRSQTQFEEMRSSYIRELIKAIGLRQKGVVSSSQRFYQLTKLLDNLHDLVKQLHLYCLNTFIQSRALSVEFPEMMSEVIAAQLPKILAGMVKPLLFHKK
Format: cell-based
Parameters: endogenous in cells; host or cells: T47D cells
Protocol: An assay was performed to identify compounds having progesterone receptor modulator activity. This assay identifies progestins or antiprogestins by determining a compound's effect on alkaline phosphatase activity in T47D cells.
Culture medium: DMEM:F12 (1:1) (GIBCO, BRL) supplemented with 5% (v/v) charcoal stripped fetal bovine serum (not heat-inactivated), 100 U/mL penicillin, 100 μg/mL streptomycin, and 2 mM the GlutaMax® reagent (GIBCO, BRL).
Alkaline phosphatase assay buffer: • I. 0.1M Tris-HCl, pH 9.8, containing 0.2% the Triton™ X-100 reagent • II. 0.1M Tris-HCl, pH 9.8, containing 4 mM p-nitrophenyl phosphate (Sigma).
Frozen T47D cells are thawed in a 37° C. water bath and diluted to 280,000 cells/mL in culture medium. To each well in a 96-well plate (Falcon, Becton Dickinson Labware), 180 μL of diluted cell suspension is added.
Twenty μL of reference or test compounds diluted in the culture medium is then added to each well. When testing for progestin antagonist activity, reference antiprogestins or test compounds are added in the presence of 1 nM progesterone. The cells are incubated at 37° C. in a 5% CO2/humidified atmosphere for 24 hours.
For high throughput screening, one concentration of each compound will be tested at 0.3 μg/mL. Based on an average molecular weight of 300 g/mol for the compounds in the library, the concentration is approximately 1 μM. Subsequently, active compounds will be tested in dose response assays to determine EC50 and IC50.
At the end of treatment, the medium is removed from the plate. Fifty μL of assay buffer I is added to each well. The plates are shaken in a titer plate shaker for 15 minutes. Then 150 μL of assay buffer II is added to each well. Optical density measurements are taken at 5 minute intervals for 30 minutes at a test wavelength of 405 nm.
Analysis of dose-response data. For reference and test compounds, a dose response curve is generated for dose (x-axis) vs. the rate of enzyme reaction (slope) (y-axis). Square root-transformed data are used for analysis of variance and nonlinear dose response curve fitting for both agonist and antagonist modes. Huber weighting is used to down-weight the effects of outliers. EC50 or IC50 values are calculated from the retransformed values. The JMP® software (SAS Institute, Inc.) is used for both one-way analysis of variance and non-linear dose response analysis in both single dose and dose response studies.
Progesterone and trimegestone are reference progestins and RU486 is the reference antiprogestin. All reference compounds are run in full dose response curves and the EC50 and IC50 values are calculated.
In the table provided above, the IC50 values show the relative progesterone receptor antagonist activity in this assay. Lower numbers are indicative of higher potency, i.e., greater PR antagonist activity. Further, the assay has a standard deviation of about ±6.

For `CCS(=O)(=O)Nc1ccc(-c2ccc(C#N)n2C)c(F)c1` [Example 41, N-[4-(5-cyano-1-methyl-1H-pyrrol-2-yl)-3-fluorophenyl]ethanesulfonamide], which “Active Dose” value is on record?
The value was 10 µM.

`CC(C)S(=O)(=O)Nc1ccc(-c2ccc(C#N)n2C)c(F)c1` [Example 44, N-[4-(5-cyano-1-methyl-1H-pyrrol-2-yl)-3-fluorophenyl]propane-2-sulfonamide] was tested. Which “Active Dose” value did it give?
Its value is 10 µM.

For `Cn1c(C#N)ccc1-c1cc(F)c(NS(C)(=O)=O)cc1F` [Example 46, N-[4-(5-cyano-1-methyl-1H-pyrrol-2-yl)-2,5-difluorophenyl]-methane-sulfonamide], which “Active Dose” value is on record?
Its value is 10 µM.

Same assay, conditions: T47D cells, antagonist mode in the presence of 1 nM progesterone, 24 hours

Which IC50 does the source give for `CCS(=O)(=O)Nc1ccc(-c2ccc(C#N)n2C)cc1` [Example 24, N-[4-(5-cyano-1-methyl-1H-pyrrol-2-yl)phenyl]ethanesulfonamide] here?
The IC50 was 10 nM.

With `CCCn1c(C#N)ccc1-c1ccc(NS(=O)(=O)CC)cc1` [Example 67, N-[4-(5-cyano-1-propyl-1H-pyrrol-2-yl)phenyl]ethanesulfonamide] as the compound, how does the IC50 read?
Its IC50 is 721 nM.

How did the IC50 turn out when `CCS(=O)(=O)Nc1ccc(-c2ccc(C#N)n2C)c(C(F)(F)F)c1` [Example 53, N-[4-(5-cyano-1-methyl-1H-pyrrol-2-yl)-3-(trifluoromethyl)phenyl]ethane-sulfonamide] was run?
Its IC50 is 10.2 nM.

`Cn1c(C#N)ccc1-c1c(F)cc(NS(C)(=O)=O)cc1F` [Example 79, N-[4-(5-cyano-1-methyl-1H-pyrrol-2-yl)-3,5-difluorophenyl]-methanesulfonamide] was tested. Which IC50 did it give?
Its IC50 is 16 nM.

For `CCCCn1c(C#N)ccc1-c1ccc(NS(=O)(=O)CC)cc1` [Example 68, N-[4-(1-butyl-5-cyano-1H-pyrrol-2-yl)phenyl]ethanesulfonamide], which IC50 is on record?
The IC50 was 546 nM.

Which IC50 does the source give for `Cn1c(C#N)ccc1-c1ccc(N)c(F)c1` [Example 2, 5-(4-amino-3-fluorophenyl)-1-methyl-1H-pyrrole-2-carbonitrile] here?
The IC50 was 65.4 nM.

`CCn1c(C#N)ccc1-c1ccc(NS(=O)(=O)CC)cc1` [Example 66, N-[4-(5-cyano-1-ethyl-1H-pyrrol-2-yl)phenyl]ethanesulfonamide] was tested. Which IC50 did it give?
The IC50 was 84.1 nM.

With `CCCCS(=O)(=O)Nc1ccc(-c2ccc(C#N)n2C)cc1` [Example 18, N-[4-(5-cyano-1-methyl-1H-pyrrol-2-yl)phenyl]butane-1-sulfonamide] as the compound, how does the IC50 read?
The IC50 was ~300 nM.

For `CC(C)c1cc(-c2ccc(C#N)n2C)ccc1NC#N` [Example 32, [4-(5-cyano-1-methyl-1H-pyrrol-2-yl)-2-isopropylphenyl]cyanamide], which IC50 is on record?
The IC50 was < 300 nM.

For `CC(C)S(=O)(=O)Nc1cc(F)c(-c2ccc(C#N)n2C)cc1F` [Example 50, N-[4-(5-cyano-1-methyl-1H-pyrrol-2-yl)-2,5-difluorophenyl]propane-2-sulfonamide], which IC50 is on record?
Its IC50 is 231 nM.

With `Cn1c(C#N)ccc1-c1ccc(NC#N)c(Cl)c1` [Example 33, [2-chloro-4-(5-cyano-1-methyl-1H-pyrrol-2-yl)phenyl]cyanamide] as the compound, how does the IC50 read?
Its IC50 is 897 nM.

Which IC50 does the source give for `CCCc1cc(-c2ccc(C#N)n2C)ccc1NC#N` [Example 31, [4-(5-cyano-1-methyl-1H-pyrrol-2-yl)-2-propylphenyl] cyanamide] here?
The IC50 was < 300 nM.

How did the IC50 turn out when `CCS(=O)(=O)Nc1ccc(-c2ccc(C#N)n2C)c(F)c1` [Example 41, N-[4-(5-cyano-1-methyl-1H-pyrrol-2-yl)-3-fluorophenyl]ethanesulfonamide] was run?
Its IC50 is 3.8 nM.

For `Cn1c(C#N)ccc1-c1ccc(NS(C)(=O)=O)cc1` [Example 25, N-[4-(5-cyano-1-methyl-1H-pyrrol-2-yl)phenyl]methanesulfonamide], which IC50 is on record?
The IC50 was 8.2 nM.

Which IC50 does the source give for `COc1cc(-c2ccc(C#N)n2C)ccc1NC#N` [Example 35] here?
Its IC50 is < 300 nM.

Which IC50 does the source give for `CC(C)S(=O)(=O)Nc1ccc(-c2ccc(C#N)n2C)c(F)c1` [Example 44, N-[4-(5-cyano-1-methyl-1H-pyrrol-2-yl)-3-fluorophenyl]propane-2-sulfonamide] here?
Its IC50 is 9.3 nM.

How did the IC50 turn out when `CCS(=O)(=O)Nc1cc(F)c(-c2ccc(C#N)n2C)c(F)c1` [Example 80, N-[4-(5-cyano-1-methyl-1H-pyrrol-2-yl)-3,5-difluorophenyl]ethane-sulfonamide] was run?
The IC50 was 19 nM.

With `Cn1c(C#N)ccc1-c1ccc(NC(=O)C2CCC2)cc1` [Example 10, N-[4-(5-cyano-1-methyl-1H-pyrrol-2-yl)phenyl]cyclobutane-carboxamide] as the compound, how does the IC50 read?
The IC50 was 83.9 nM.

Which IC50 does the source give for `Cn1c(C#N)ccc1-c1cc(F)c(NS(C)(=O)=O)cc1F` [Example 46, N-[4-(5-cyano-1-methyl-1H-pyrrol-2-yl)-2,5-difluorophenyl]-methane-sulfonamide] here?
The IC50 was 39.8 nM.

How did the IC50 turn out when `CCS(=O)(=O)Nc1ccc(-c2ccc(C#N)n2C)c(C#N)c1` [Example 75, N-[3-cyano-4-(5-cyano-1-methyl-1H-pyrrol-2-yl)phenyl]ethanesulfonamide] was run?
The IC50 was 124 nM.

Which IC50 does the source give for `C#CCn1c(C#N)ccc1-c1ccc(NS(=O)(=O)CC)cc1` [Example 70, N-[4-(5-cyano-1-prop-2-yn-1-yl-1H-pyrrol-2-yl)phenyl]ethanesulfonamide] here?
Its IC50 is 797 nM.

How did the IC50 turn out when `CCCCS(=O)(=O)Nc1cc(F)c(-c2ccc(C#N)n2C)cc1F` [Example 49, N-[4-(5-cyano-1-methyl-1H-pyrrol-2-yl)-2,5-difluorophenyl]butane-1-sulfonamide] was run?
Its IC50 is 267 nM.

Which IC50 does the source give for `CC(=O)Nc1ccc(-c2ccc(C#N)n2C)cc1` [Example 8, N-[4-(5-cyano-1-methyl-1H-pyrrol-2-yl)phenyl]acetamide] here?
The IC50 was ~300 nM.

For `Cn1c(C#N)ccc1-c1ccc(NC(=O)Nc2ccc(-c3ccc(C#N)n3C)cc2)cc1` [Example 15, N,N′-bis[4-(5-cyano-1-methyl-1H-pyrrol-2-yl)phenyl]urea], which IC50 is on record?
The IC50 was 642 nM.

`CCS(=O)(=O)Nc1cc(F)c(-c2ccc(C#N)n2C)cc1F` [Example 47, N-[4-(5-cyano-1-methyl-1H-pyrrol-2-yl)-2,5-difluorophenyl]ethane-sulfonamide] was tested. Which IC50 did it give?
Its IC50 is 22.1 nM.

For `CC(C)COC(=O)Nc1ccc(-c2ccc(C#N)n2C)cc1` [Example 14, Isobutyl[4-(5-cyano-1-methyl-1H-pyrrol-2-yl)phenyl]carbamate], which IC50 is on record?
The IC50 was 378 nM.

Which IC50 does the source give for `Cn1c(C#N)ccc1-c1ccc(NS(C)(=O)=O)cc1C(F)(F)F` [Example 52, N-[4-(5-cyano-1-methyl-1H-pyrrol-2-yl)-3-(trifluoromethyl)phenyl]methane-sulfonamide] here?
Its IC50 is 13.4 nM.

With `CCCC(=O)Nc1ccc(-c2ccc(C#N)n2C)cc1` [Example 7, N-[4-(5-cyano-1-methyl-1H-pyrrol-2-yl)phenyl]butanamide] as the compound, how does the IC50 read?
The IC50 was 78.8 nM.

For `CCCS(=O)(=O)Nc1ccc(-c2ccc(C#N)n2C)c(F)c1` [Example 42, N-[4-(5-cyano-1-methyl-1H-pyrrol-2-yl)-3-fluorophenyl]propane-1-sulfonamide], which IC50 is on record?
Its IC50 is 3.5 nM.

Which IC50 does the source give for `CCCS(=O)(=O)Nc1ccc(-c2ccc(C#N)n2C)c(C#N)c1` [Example 76, N-[3-cyano-4-(5-cyano-1-methyl-1H-pyrrol-2-yl)phenyl]propane-1-sulfonamide] here?
Its IC50 is 86.8 nM.

With `CCC(=O)Nc1ccc(-c2ccc(C#N)n2C)cc1` [Example 6, N-[4-(5-cyano-1-methyl-1H-pyrrol-2-yl)phenyl]propanamide] as the compound, how does the IC50 read?
The IC50 was 76.7 nM.

`CCCCS(=O)(=O)Nc1ccc(-c2ccc(C#N)n2C)c(F)c1` [Example 43, N-[4-(5-cyano-1-methyl-1H-pyrrol-2-yl)-3-fluorophenyl]butane-1-sulfonamide] was tested. Which IC50 did it give?
Its IC50 is 6.6 nM.

How did the IC50 turn out when `CCS(=O)(=O)Nc1ccc(-c2ccc(C#N)n2C)cc1OC(F)(F)F` [Example 60, N-[4-(5-cyano-1-methyl-1H-pyrrol-2-yl)-2-(trifluoromethoxy)phenyl]ethane-sulfonamide] was run?
The IC50 was 35.8 nM.

Same assay, conditions: T47D cells, in the presence of 1 nM progesterone

`CCn1c(C#N)ccc1-c1ccc(NS(=O)(=O)CC)cc1` [Example 66, N-[4-(5-cyano-1-ethyl-1H-pyrrol-2-yl)phenyl]ethanesulfonamide] was tested. Which “Antagonist Efficacy” value did it give?
Its value is 80%.
